# Where “and” joins values, the source holds several entries; their conditions need not be identical. Identical values can stand only once.
# Legend:
# [1] = system: hairless SKH1 mice; experiment: Test on recovery of skin barrier disruption in mice (TEWL); type: in vivo; details: 10 mM
# Procedure: The procedure was completed when transepidermal water loss (TEWL) achieved ≧40 mg/cm^2/h. TEWL was assessed with a Tewameter TM210 (Courage Khazaka, Cologne, Del.). Immediately after barrier disruption 30 μl the test compound was applied at 10 mM concentration. Control animals were treated similarly with the solvent (ethanol/propylene glycol, 3/7 (v/v)) alone. TEWL was measured before, immediately after, and at 3 hrs after barrier disruption. In each animal, the percentage recovery was calculated using the formula: (1−[TEWL at 3 hrs−base line TEWL]/[TEWL immediately after stripping−base line TEWL])×100%.
# [2] = system: Crl:NMRI mice; experiment: Anti-inflammatory activity in murine model of allergic contact dermatitis (ACD), oxazolone; type: in vivo; details: for Δ Auricular weights Mean (SD): 10 μl topical 30 min after challenge, n: 8 animals per group; for % Inhibition of inflammatory swelling Mean ± SE: single topical application, p<0.001 vs solvent-treated animals
# Procedure: Method: Crl:NMRI mice were sensitized on the shaved abdomen with 50 μl of 2% oxazolone on day 1 and challenged with 10 μl oxazolone on the inner surface of the right ear on day 8. The unchallenged left ears served as normal controls and dermatitis was evaluated from the difference in auricular weight (taken as a measure of inflammatory swelling) on day 9. The animals were treated topically with 10 μl test compound or the solvent only 30 min after the challenge. The efficacy of the treatment was calculated as the percentage inhibition of inflammatory auricular swelling relative to animals treated with the vehicle alone.
# [3] = system: Swine Model of Allergic Contact Dermatitis (ACD); experiment: Anti-inflammatory activity in swine model of allergic contact dermatitis (ACD), DNFB; type: in vivo
# Procedure: Eight days before the elicitation of the ACD, […] of 10% 2,4-dinitrofluorobenzene (DNFB, dissolved in DMSO/acetone/olive oil [1/5/3, v/v/v]) were applied epicutaneously in divided volumes onto the basis of both ears and onto both groins (100 μl/site) for sensitization. The challenge reactions were elicited with 15 μl of DNFB (1.0%) on contralateral test sites (each 7 cm^2 in size) of the shaved dorsolateral back. For treatment, the test compound and the placebo (solvent only) were applied contralaterally to 2 test sites in each animal 0.5 and 6 hrs after the challenge. The test sites were clinically examined 24 hrs after the challenge when inflammation peaked. The changes were scored on a scale from 0 to 4 (Table 15), allowing a combined maximal score of 12 per designated site. Skin reddening was measured reflectometrically using a* values.
# [4] = molecular target: T1, Human neutrophil elastase (Homo sapiens, UniProt P08246); experiment: HNE inhibitory activity in vitro (fluorescence-quenched substrate); type: biochemical
# T1 construct: purchased Elastin Products Company, Inc. (EPC, Owensville, USA) SE563
# T1 sequence (P08246 30-267): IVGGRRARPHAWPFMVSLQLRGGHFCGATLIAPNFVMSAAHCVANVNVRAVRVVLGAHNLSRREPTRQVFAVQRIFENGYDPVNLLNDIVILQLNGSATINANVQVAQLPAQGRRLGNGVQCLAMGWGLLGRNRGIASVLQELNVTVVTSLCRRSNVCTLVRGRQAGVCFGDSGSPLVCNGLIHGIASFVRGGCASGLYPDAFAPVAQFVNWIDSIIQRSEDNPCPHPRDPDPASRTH
smiles,measurement,setting,value
CCC(C)[C@@H]1NC(=O)[C@H](Cc2ccc(O)cc2)N(C)C(=O)[C@H](C(C)CC)N2C(=O)C(CC[C@@H]2O)NC(=O)[C@H](CC(C)C)NC(=O)[C@@H](NC(=O)[C@H](CCC(N)=O)NC(=O)C(C)C)[C@@H](C)OC1=O (stereo partly shown) [formula II],% Recovery in barrier disruption Mean (SD values),"[1]; 30 μl topical, TEWL at 3 hrs, n: 4 animals per group",72.0 (9.1) %
same,acceleration of barrier repair compared to repair in mice treated with the solvent alone,"[1]; single topical application, 3 hrs after barrier disruption, p<0.05",57%
same,Δ Auricular weights Mean (SD),[2]; 10 mM,17.0 (4.8)
same,% Inhibition of inflammatory swelling Mean ± SE,[2]; 10 mM,40% and 40 ± 6.9%
same,Δ Auricular weights Mean (SD),[2]; 30 mM,15.3 (5.4)
same,% Inhibition of inflammatory swelling Mean ± SE,[2]; 30 mM,46% and 46 ± 7.5%
same,"A* value (Mean), skin reddening measured reflectometrically","[3]; 1% solution applied 0.5 and 6 hrs after challenge, 24 hrs, n: 8 test sites",8.6
same,Clinical score (Mean),"[3]; 1% solution applied 0.5 and 6 hrs after challenge, scored at 24 hrs, maximal score 12, n: 8 test sites",5.1
same,"Inhibition vs placebo-treated sites, A* value","[3]; Table 16, 1% test compound",27.0
same,"Inhibition vs placebo-treated sites, clinical score","[3]; Table 16, 1% test compound",29.9
same,inhibition of clinical inflammatory changes,"[3]; treated twice with 1% solution, p<0.01",30%
same,inhibition of measured skin redness,"[3]; treated twice with 1% solution, p<0.05",27%
same,IC50,[4],10 nM
